Results from patent publication US6215002A, “Pyrrolopyrrolone derivatives as inhibitors of neutrophil elastase” (priority 1996, dated 2001).
Counter-ions that a name gives are not always drawn.

Target: T1, human neutrophil elastase (Homo sapiens, UniProt P08246)
T1 sequence (P08246 30-267): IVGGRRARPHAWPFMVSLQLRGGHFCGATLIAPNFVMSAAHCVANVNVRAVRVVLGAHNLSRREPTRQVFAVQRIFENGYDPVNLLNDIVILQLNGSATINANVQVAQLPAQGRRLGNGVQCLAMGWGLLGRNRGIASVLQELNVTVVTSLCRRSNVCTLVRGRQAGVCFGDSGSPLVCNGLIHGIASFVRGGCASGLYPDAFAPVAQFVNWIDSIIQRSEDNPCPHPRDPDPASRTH
Test: In vitro assay of human neutrophil elastase (HNE)
Format: biochemical
Details: 118 nM purified human neutrophil elastase, pH 8.6, 15 min incubation at 30° C., MeO-succinyl-alanyl-alanyl-prolyl-valyl-p-nitroanilide substrate; read-out: HNE IC50
Protocol: In Vitro Assays of Human Neutrophil Elastase
118 nM purified human neutrophil elastase
Suitable concentrations of compound under test diluted with water from a 10 mM stock solution in dimethylsulphoxide. Values above are final concentrations after the addition of substrate solution (see below).
The mixture above is incubated for fifteen minutes at 30° C. at which time the remaining elastase activity is measured for 10 minutes in a BioTek 340i plate-reader, after the addition of 0.6 mM MeO-succinyl-alanyl-alanyl-prolyl-valyl-p-nitroanilide. The rate of increase in absorbance at 405 nm is proportional to elastase activity. Enzyme activity is plotted against concentration of inhibitor and an IC50 determined using curve fitting software.
1. The compounds were tested in the in vitro elastase test described earlier in the description.

Row | SMILES | IC50 [nM]
1 | CCC[C@H]1C(=O)N(S(C)(=O)=O)[C@H]2CCN(C(=O)CCCCCN3CCCCC3)[C@H]12 (relative stereo) [Example 74, rel-(3R,3aR,6aS)-1-Methanesulfonyl-4-(6-piperidin-1-yl-hexanoyl)-3-propyl-hexahydro-pyrrolo[3,2-b]pyrrol-2-one hydrochloride] | 55
2 | CCC[C@H]1C(=O)N(S(C)(=O)=O)[C@H]2CCN(C(=O)c3ccc(NC(C)=O)cc3)[C@H]12 (relative stereo) [Example 120, rel-N-[4-(4-Methanesulfonyl-5-oxo-6R-propyl-hexahydro-(3aS,6aR)-pyrrolo[3,2-b]pyrrole-1-carbonyl)-phenyl]-acetamide] | 42
3 | CCC[C@H]1C(=O)N(S(C)(=O)=O)[C@H]2CCN(C(=O)CCCN3CCN(C)CC3)[C@H]12 (relative stereo) [Example 82, rel-(3R,3aR,6aS)-1-Methanesulfonyl-4-[4-(4-methyl-piperazin-1-yl)-butyryl]-3-propyl-hexahydro-pyrrolo[3,2-b]pyrrol-2-one dihydrochloride] | 162
4 | CCC[C@H]1C(=O)N(S(C)(=O)=O)[C@H]2CCN(C(=O)CN3CCOCC3)[C@H]12 (relative stereo) [Example 107, rel-(3R,3aR,6aS)-1-Methanesulfonyl-4-morpholin-4-yl-acetyl)-3-propyl-hexahydro-pyrrolo[3,2-b]pyrrol-2-one hydrochloride] | 143
5 | CCC[C@H]1C(=O)N(S(C)(=O)=O)[C@H]2CCN(S(=O)(=O)c3cccc(C(F)(F)F)c3)[C@H]12 (relative stereo) [Example 223, rel-(3R,3aR,6aS)-1-Methanesulfonyl-3-propyl-4-(3-trifluoromethyl-benzenesulfonyl)-hexahydro-pyrrolo[3,2-b]pyrrol-2-one] | 62
6 | C=CC[C@H]1C(=O)N(S(=O)(=O)c2ccc3ccccc3c2)[C@H]2CCN(C(=O)OCc3ccccc3)[C@H]12 (relative stereo) [Example 1, rel-(3aS,6R,6aR)-6-Allyl-4-(naphthalene-2-sulfonyl)-5-oxo-hexahydro-pyrrolo[3,2-b]pyrrole-1-carboxylic acid benzyl ester] | 36
7 | CCC[C@H]1C(=O)N(S(C)(=O)=O)[C@H]2CCN(S(=O)(=O)c3ccc(N4CCCC4=O)cc3)[C@H]12 (relative stereo) [Example 212, rel-(3R,3aR,6aS)-1-Methanesulfonyl-4-[4-(2-oxo-pyrrolidin-1yl)-benzenesufonyl]-3-propyl-hexahydro-pyrrolo[3,2-b]pyrrol-2-one] | 30
8 | CCC[C@H]1C(=O)N(S(C)(=O)=O)[C@H]2CCN(S(=O)(=O)c3ccc(C(=O)N4CCCCC4)cc3)[C@H]12 (relative stereo) [Example 119, rel-(3R,3aR,6aS)-1-Methanesulfonyl-4-[4-(piperidine-1-carbonyl)-benzenesulfonyl]-3-propyl-hexahydro-pyrrolo[3,2-b]pyrrol-2-one] | 34
9 | CCC[C@H]1C(=O)N(S(C)(=O)=O)[C@H]2CCN(C(=O)C3CCCN3C)[C@H]12 (relative stereo) [Example 111, rel-(3R,3aR,6aS)-1-Methanesulfonyl-4-(1-methyl-pyrrolidine-2-carbonyl)-3-propyl-hexahydro-pyrrolo[3,2-b]pyrrol-2-one] | 580
10 | CCC[C@H]1C(=O)N(S(C)(=O)=O)[C@H]2CCN(C(=O)CCCCCCCCCN3CCN(C)CC3)[C@H]12 (relative stereo) [Example 69, rel-(3R,3aR,6aS)-1-Methanesulfonyl-4-[10-(4-methyl-piperazin-1-yl)-decanoyl]-3-propyl-hexahydro-pyrrolo[3,2-b]pyrrol-2-one dihydrochloride] | 80
11 | CC(C)[C@H]1C(=O)N(S(C)(=O)=O)[C@H]2CCN(S(=O)(=O)c3ccc(CN4CCCCCC4)cc3)[C@H]12 (relative stereo) [Example 199, rel-(3R,3aR,6aS)-4-(4-Azepin-1-ylmethyl-benzenesulfonyl)-3-isopropyl-1-methanesulfonyl-hexahydro-pyrrolo[3,2-b]pyrrol-2-one hydrochloride] | 99
12 | CCC[C@H]1C(=O)N(S(C)(=O)=O)[C@H]2CCN(S(=O)(=O)c3ccc(C(=O)O)cc3)[C@@H]12 (relative stereo) [Example 122, rel-(3aS,6R,6aS)-4-(4-Methanesulfonyl-5-oxo-6-propyl-hexahydro-pyrrolo[3,2-b]pyrrole-1-sulfonyl)-benzoic acid] | 4
13 | CCC[C@H]1C(=O)N(S(C)(=O)=O)[C@H]2CCN(C(=O)CCCCCCCCCN3CCCC3)[C@H]12 (relative stereo) [Example 71, rel-(3R,3aR,6aS)-1-Methanesulfonyl-3-propyl-4-(10-pyrrolidin-1-yl-decanoyl)-hexahydro-pyrrolo[3,2-b]pyrrol-2-one hydrochloride] | 35
14 | CC(C)[C@H]1C(=O)N(S(C)(=O)=O)[C@H]2CCN(S(=O)(=O)c3ccc([N+](=O)[O-])cc3)[C@H]12 (relative stereo) [Example 229, rel-(3R,3aR,6aS)-3-Isopropyl-1-methanesulfonyl-4-(4-nitro-benzenesulfonyl)-hexahydro-pyrrolo[3,2-b]pyrrol-2-one] | 167
15 | CCC[C@H]1C(=O)N(S(=O)(=O)CC)[C@H]2CCN(S(=O)(=O)CCCN3CCCCC3)[C@H]12 (relative stereo) [Example 165, rel-(3R,3aR,6aS)-1-Ethanesulfonyl-4-(3-piperidin-1-yl-propane-1-sulfonyl)-3-propyl-hexahydro-pyrrolo[3,2-b]pyrrol-2-one DL-tartrate] | 86
16 | C=CC[C@H]1C(=O)N(S(=O)(=O)c2cccc(S(=O)(=O)N(C)C)c2)[C@H]2CCN(C(=O)OCc3ccccc3)[C@H]12 (relative stereo) [Example 37, rel-(3aS,6R,6aR)-6-Allyl-4-(3-dimethylsulfamoyl-benzenesulfonyl)-5-oxo-hexahydro-pyrrolo[3,2-b]pyrrole-1-carboxylic acid benzyl ester] | 138
17 | C=CC[C@H]1C(=O)N(S(=O)(=O)c2cccc([N+](=O)[O-])c2)[C@H]2CCN(C(=O)OCc3ccccc3)[C@H]12 (relative stereo) [Example 38, rel-(3aS,6R,6aR)-6-Allyl-4-(3-nitro-benzenesulfonyl)-5-oxo-hexahydro-pyrrolo[3,2-b]pyrrole-1-carboxylic acid benzyl ester] | 205
18 | C=CC[C@H]1C(=O)N(S(=O)(=O)c2ccc3ccccc3c2)[C@H]2CCN(C(=O)OCc3ccccc3)[C@H]12 [Example 55, (3aS,6R,6aR)-6-Allyl-4-(naphthalene-2-sulfonyl)-5-oxo-hexahydro-pyrrolo[3,2-b]pyrrole-1-carboxylic acid benzyl ester] | 38
19 | CCC[C@H]1C(=O)N(S(C)(=O)=O)[C@H]2CCN(C(=O)/C=C/C(=O)O)[C@H]12 (relative stereo) [Example 129, rel-4-(4-Methanesulfonyl-5-oxo-6R-propyl-hexahydro-(3aS,6aR)-pyrrolo[3,2-b]pyrrol-1-yl)-oxo-but-2-E-enoic acid] | 14
20 | CCC[C@H]1C(=O)N(S(C)(=O)=O)[C@H]2CCN(C(=O)CN)[C@H]12 (relative stereo) [Example 109, rel-(3R,3aR,6aS)-4-Aminoacetyl-1-methanesulfonyl-3-propyl-hexahydro-pyrrolo[3,2-b]pyrrol-2-one trifluoroacetate] | 96
21 | CCC[C@H]1C(=O)N(S(C)(=O)=O)[C@H]2CCN(S(=O)(=O)c3ccc(CN4CCCCC4)cc3)[C@H]12 (relative stereo) [Example 194, rel-(3R,3aR,6aS)-1-Methanesulfonyl-4-(4-piperidin-1-ylmethyl-benzenesulfonyl)-3-propyl-hexahydro-pyrrolo[3,2-b]pyrrol-2-one hydrochloride] | 60
22 | CCC[C@H]1C(=O)N(S(C)(=O)=O)[C@H]2CCN(C(=O)c3ccc(S(C)(=O)=O)cc3)[C@H]12 (relative stereo) [Example 245, rel-(3R,3aR,6aS)-1-Methanesulfonyl-4-(4-methanesulfonyl-benzoyl)-3-propyl-hexahydro-pyrrolo[3,2-b]pyrrol-2-one] | 9
23 | CCC[C@H]1C(=O)N(S(C)(=O)=O)[C@H]2CCN(C(=O)c3ccc(C(F)(F)F)cc3)[C@H]12 (relative stereo) [Example 244, rel-(3R,3aR,6aS)-1-Methanesulfonyl-3-propyl-(4-trifluoromethyl-benzoyl)-hexahydro-pyrrolo[3,2-b]pyrrol-2-one] | 11
24 | CCC[C@H]1C(=O)N(S(C)(=O)=O)[C@H]2CCN(C(=O)CCC(N)=O)[C@H]12 (relative stereo) [Example 95, rel-4-(4-Methanesulfonyl-5-oxo-6R-propyl-hexahydro-(3aS,6aR)-pyrrolo[3,2-b]pyrrol-1-yl)-4-oxo-butyramide] | 84
25 | CCC[C@H]1C(=O)N(S(=O)(=O)CCC)[C@H]2CCN(C(=O)CCN3CCCCC3)[C@H]12 (relative stereo) [Example 162, rel-(3R,3aR,6aS)-4-(3-Piperidin-1-yl-propionyl)-1-(propane-1-sulfonyl)-3-propyl-hexahydro-pyrrolo[3,2-b]pyrrol-2-one DL-tartrate] | 62
26 | CCC[C@H]1C(=O)N(S(C)(=O)=O)[C@H]2CCN(C(=O)CCCN3CCCCCC3)[C@H]12 (relative stereo) [Example 86, hydrochloride] | 103
